{"source": "patent US9644194B2", "about": "“Cold-adapted protease derived from Pseudoalteromonas arctica PAMC 21717 and uses thereof” (KOREA INSTITUTE OF OCEAN SCIENCE & TECHNOLOGY, priority 2014, dated 2017)", "molecules": {"B1": {"name": "Subtilisin Carlsberg: commercial protease used as control enzyme (protein, UniProt P00780 106-379, looked up)", "Subtilisin Carlsberg": "AQTVPYGIPLIKADKVQAQGFKGANVKVAVLDTGIQASHPDLNVVGGASFVAGEAYNTDGNGHGTHVAGTVAALDNTTGVLGVAPSVSLYAVKVLNSSGSGSYSGIVSGIEWATTNGMDVINMSLGGASGSTAMKQAVDNAYAKGVVVVAAAGNSGSSGNTNTIGYPAKYDSVIAVGAVDSNSNRASFSSVGAELEVMAPGAGVYSTYPTNTYATLNGTSMASPHVAGAAALILSKHPNLSASQVRNRLSSTATYLGSSFYYGKGLINVEAAAQ"}}, "key": {"W-Pro21717 [1]": {"test_system": "W-Pro21717", "assay": "Activity and stability of W-Pro21717 in the presence of metal ions and surfactants", "type": "biochemical, Pseudoalteromonas arctica PAMC 21717", "conditions": "1 mM, on ice for 1 hour, FIG. 3; for influence on the activity of W-Pro21717: result in words", "procedure": "In order to analyze the influence of metal ions and detergents, W-[…] was allowed to react with a standard buffer containing 1 mM BaCl2, CuSO4, MgSO4, CaCl2, ZnSO4, FePO4, KCl, NaCl, […], sodium linear alkylbenzene sulfonate (LAS) or SDS on ice for 1 hour. In addition, the compatibility of W-[…] with a commercial detergent (LG Household & Health Care, Korea; containing subtilisin Carlsberg) was analyzed using skim milk at temperatures of 10° C. and 30° C."}, "W-Pro21717 [2]": {"test_system": "W-Pro21717", "assay": "Effect of protease inhibitors on W-Pro21717 activity", "type": "biochemical, Pseudoalteromonas arctica PAMC 21717", "conditions": "result in words", "procedure": "(§1) The reaction solution was centrifuged, and then filtered through a filter having a pore size of 0.45 μm, and the filtrate was mixed and reacted with Folin & Ciocalteu's phenol solution and 500 mM sodium carbonate solution at 37° C. for 30 minutes. Next, the enzymatic activity of the reaction product was measured at 660 nm based on an L-tyrosine standard curve, and an amino acid production of 1 nmole/min/mg at 25° C. was defined as the activity of 1 unit of protease.\nThe kind of W-Pro21717 was analyzed by reactions with various protease inhibitors."}, "[3]": {"assay": "Substrate specificity of W-Pro21717 with synthetic peptides", "type": "biochemical", "conditions": "25° C., 10 minutes, 410 nm", "procedure": "The substrate specificity of W-Pro21717 was analyzed using 5 mM of each of the following 7 different synthetic peptides: N-succinyl-Ala-Ala-Val-p-nitroanilide (AAV), N-succinyl-Ala-Ala-Pro-Leu-p-nitroanilide (AAPL), N-succinyl-Ala-Ala-Ala-p-nitroanilide (AAA), N-succinyl-Gly-Gly-Phe-p-nitroanilide (GGF), N-succinyl-Thr-Leu-Val-p-nitroanilide (TLV), N-succinyl-Ala-Ala-Pro-Phe-p-nitroanilide (AAPF), and N-succinyl-Ala-Ala-Val-Ala-p-nitroanilide (AAVA). W-Pro21717 was allowed to react with a standard buffer containing 0.83 mM substrate at 25° C. for 10 minutes, and then the relative activity thereof was measured at 410 nm."}, "azocasein [4]": {"test_system": "azocasein", "assay": "Activity and stability of R-Pro21717 with temperature and pH", "type": "biochemical", "procedure": "In order to determine a temperature optimal for the activity of the protease, R-Pro21717 was allowed to react at varying temperatures of 0˜70° C., and then analyzed. The stability of R-Pro21717 against temperature was analyzed by allowing R-Pro21717 at varying temperatures of 0˜70° C. for 1 hour, and then allowing R-Pro21717 to react a 0.65% azocasein-containing standard buffer at 30° C. for 30 minutes. As a control enzyme, Carlsberg subtilisin was used.\nIn order to determine a pH optimal for the activity of the protease, R-Pro21717-containing buffers having varying pHs were allowed to react at 30° C., and then analyzed. The stability of R-Pro21717 against pH was analyzed by allowing R-Pro21717-containing buffers having varying pHs to react on ice for 1 hour, and then reacting R-Pro21717 in 0.65% azocasein-containing standard buffer at 30° C. for 30 minutes. Carlsberg subtilisin was used as a control enzyme and analyzed at a reaction temperature of 40° C."}, "azocasein [5]": {"test_system": "azocasein", "assay": "Activity and stability of W-Pro21717 with temperature and pH", "type": "biochemical", "procedure": "as §1, with “In order to measure the degradation activity of W-Pro21717, the cultured PAMC 21717 cells were centrifuged at 4° C. at 12,000×g for 30 minutes, and the supernatant was mixed with 50 mM sodium phosphate buffer (pH 7.6) containing 0.65% azocasein substrate, and was allowed to at 25° C. for 1 hour, and then additionally allowed to react at 37° C. for 1 hour after adding 110 mM trichloroacetic acid thereto. The” for “The”\nA temperature optimal for the activity of W-Pro21717 was analyzed in the temperature range of 0 to 60° C., and the optimum pH was analyzed by 1-hour reactions in 50 mM sodium acetate (pH 2.0-6.0), 50 mM potassium phosphate (pH 7.0-10.0) and 50 mM sodium tetraborate (pH 10.0). As a control, 3 μg of the commercial protease Carlsberg subtilisin was used."}}, "data": [{"molecule": "[Ba+2].[Cl-].[Cl-]", "note": "[Ba^2+, BaCl2]", "values": [{"measurement": "influence on the activity of W-Pro21717", "setting": "W-Pro21717 [1]", "value": "did not influence"}]}, {"molecule": "[Ca+2].[Cl-].[Cl-]", "note": "[Ca^2+, CaCl2]", "values": [{"measurement": "influence on the activity of W-Pro21717", "setting": "W-Pro21717 [1]", "value": "did not influence"}]}, {"molecule": "O=S(=O)([O-])[O-].[Cu+2]", "note": "[CuSO4]", "values": [{"measurement": "increase of the activity of W-Pro21717", "setting": "W-Pro21717 [1]", "value": "about 60%"}]}, {"molecule": "O=C(O)CN(CCN(CC(=O)O)CC(=O)O)CC(=O)O", "note": "[EDTA]", "values": [{"measurement": "effect of inhibitor on the activity of W-Pro21717", "setting": "W-Pro21717 [2]", "value": "slightly inhibited"}]}, {"molecule": "[Fe+2]", "note": "[Fe^2+, FePO4]", "values": [{"measurement": "influence on the activity of W-Pro21717", "setting": "W-Pro21717 [1]", "value": "did not influence"}]}, {"molecule": "[Cl][Hg][Cl]", "note": "[HgCl2]", "values": [{"measurement": "effect of inhibitor on the activity of W-Pro21717", "setting": "W-Pro21717 [2]", "value": "inhibited"}]}, {"molecule": "[Cl-].[K+]", "note": "[K^+, KCl]", "values": [{"measurement": "influence on the activity of W-Pro21717", "setting": "W-Pro21717 [1]", "value": "did not influence"}]}, {"molecule": "O=S(=O)([O-])[O-].[Mg+2]", "note": "[Mg^2+, MgSO4]", "values": [{"measurement": "influence on the activity of W-Pro21717", "setting": "W-Pro21717 [1]", "value": "did not influence"}]}, {"molecule": "[Cl-].[Na+]", "note": "[Na^2+, NaCl]", "values": [{"measurement": "influence on the activity of W-Pro21717", "setting": "W-Pro21717 [1]", "value": "did not influence"}]}, {"molecule": "O=S(=O)(F)Cc1ccccc1", "note": "[PMSF]", "values": [{"measurement": "effect of inhibitor on the activity of W-Pro21717", "setting": "W-Pro21717 [2]", "value": "inhibited"}]}, {"molecule": "O=S(=O)([O-])[O-].[Zn+2]", "note": "[Zn^2+, ZnSO4]", "values": [{"measurement": "influence on the activity of W-Pro21717", "setting": "W-Pro21717 [1]", "value": "did not influence"}]}, {"molecule": "B1", "values": [{"measurement": "Relative activity (%)", "setting": "[3]; substrate AAPF", "value": 100, "unit": "%"}, {"measurement": "Relative activity (%)", "setting": "[3]; substrate GGF", "value": 0, "unit": "%"}, {"measurement": "temperature at which stability / enzymatic activity decreases", "setting": "azocasein [4]; 1 hour at temperature, then azocasein 30° C. 30 minutes, FIG. 9B", "value": "≥ 50", "unit": "°C"}, {"measurement": "pH of highest activity", "setting": "azocasein [4]; FIG. 9C", "value": "same results as those of R-Pro21717"}, {"measurement": "pH optimal for the stability", "setting": "azocasein [4]; on ice for 1 hour, FIG. 9D", "value": "same results as those of R-Pro21717"}, {"measurement": "proteolytic activity at low temperature relative to the highest activity", "setting": "azocasein [4]; printed 'at or'", "value": "did not show proteolytic activity"}, {"measurement": "temperature optimal for the activity", "setting": "azocasein [4]; tested 0˜70° C., FIG. 9A", "value": 60, "unit": "°C"}, {"measurement": "temperature optimal for the activity", "setting": "azocasein [5]; tested 0 to 60° C., FIG. 2A", "value": 60, "unit": "°C"}, {"measurement": "decrease in activity after a reaction at 40° C. for 1 hour", "setting": "azocasein [5]; thermal stability, FIG. 2B", "value": 80, "unit": "%"}]}]}
